In US5916869A, “Method of treating birds in ovo” (North Carolina State University, priority 1997, dated 1999):

Experiments:
[1] = in vivo
Experimental: (§1) To test this hypothesis, the following study was carried out: Four hundred and sixty eggs were randomly divided into two groups and administered either saline (control) or PYY (600 μg/kg egg weight) into the air cell on day 18 of incubation. At hatching 420 chicks were vent sexed, wing-banded, weighed and randomly placed by treatment and sex into 60 pens of 7 chicks each. Pens were equipped with chick founts, nipple drinkers, and feeders. […] The light cycle was 23 light and 1 dark for the entire experiment.
(§2) Chicks were fed a starter diet (22% CP) for the first 3 weeks and a grower diet (20% CP) for the remaining 3 weeks. Individual chicks were weighed weekly and pen feed consumption recorded as feeders were refilled. At week six, all birds were weighed and euthanized with CO2. Data were statistically analyzed using the General Linear Models Procedure of SAS (1988) with treatment, sex, room and pen as the main effects. Differences were considered significant at P<0.05.
(§3) Weight gain and Feed Conversion Ratio (FCR) were evaluated in broiler chicks treated in ovo with PYY as described in Example 1. Although there were sex differences (P<0.05) for many of the growth and performance parameters, there were no sex x treatment interactions (P<0.05). Therefore, data from both sexes was combined.

[2] = system: jejunal glucose transport; settings: cited from earlier work; for glucose absorption: young growing mice, exogenous administration
[3] = Broiler chick Feed Conversion Ratio (FCR) after in ovo administration; type: in vivo, broiler chicks
Experimental: as §1, §2, §3

[4] = Broiler chick body weight after in ovo administration; type: in vivo, broiler chicks
Experimental: as §1, §2, §3

Q: With “PYY: 36 amino acid peptide hormone produced by L type endocrine cells, member of the pancreatic polypeptide family; term covers PYY-I and PYY-II [Peptide YY]” as the substance, how does the Mortality [1] read?
A: The Mortality was “less than 1%”.

Q: What about the “Mortality, difference between treatments” value [1] of the same substance?
A: Its value is “did not differ significantly between treatments”.

Q: And the “active jejunal glucose transport” value ([2]; mice treated with PYY)?
A: The value was “increase in active jejunal glucose transport”.

Q: What about the intestinal energy expenditure ([2]; mice treated with PYY) of the same substance?
A: Its intestinal energy expenditure is “without any increase in intestinal energy expenditure”.

Q: And the passive transport rates ([2]; mice treated with PYY)?
A: Its passive transport rates is “without a corresponding increase in passive transport rates”.

Q: What about the glucose absorption [2] of the same substance?
A: Its glucose absorption is “increases glucose absorption”.

Q: What about the “FCR, less than chicks from saline treated eggs” value ([3]; one week of age, 600 μg/kg egg weight in ovo) of the same substance?
A: Its value is 3.99%.

Q: What about the “FCR vs saline control (FIG. 2)” value ([3]; week 1, in ovo injection) of the same substance?
A: Its value is “significantly lower (P<0.05)”.

Q: And the FCR vs control ([3]; weeks 3 and 6, data not shown)?
A: The FCR vs control was “No differences”.

Q: And the “body weights vs saline control (FIG. 1)” value ([4]; hatch and week 1 of age, in ovo injection)?
A: The value was “significantly (P<0.05) greater”.

Q: And the “body weight, heavier than chicks from control eggs” value ([4]; week 1, 600 μg/kg egg weight into air cell on day 18 of incubation, vs saline)?
A: The value was 2.7%.

Q: What about the “broiler weights vs control” value ([4]; weeks 3 and 6, data not shown) of the same substance?
A: Its value is “No statistical differences”.

Q: Which glucose absorption [2] does the source give for “epidermal growth factor (NSDSECPLSHDGYCLHDGVCMYIEALDKYACNCVVGYIGERCQYRDLKWWELR; Epidermal growth factor; UniProt P01133 971-1023, looked up) [EGF, epidermal growth factor, peptide administered in ovo as comparison treatment]” here?
A: Its glucose absorption is “increases glucose absorption”.
